Patent publication US20230126893A1, “[(1,4,5-TRISUBSTITUTED-1H-PYRAZOL-3-YL)SULFANYL]ACETIC ACID DERIVATIVES, SALTS THEREOF, AND USE THEREOF AS ACTIVE HERBICIDAL INGREDIENTS” (BAYER AKTIENGESELLSCHAFT, priority 2020, published 2023)

Legend:
Type in all cases: in vivo
Alopecurus myosuroides [1] = assay: Pre-emergence herbicidal effect against ALOMY; details: 1280 g/ha, visual score after 3 weeks, 100% = plants have died, 0% = like control plants
In short: (§1)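 Seeds sown in sandy loam and covered with soil; WP or EC formulations sprayed onto the soil surface as aqueous suspension/emulsion at 600 to 800 L/ha water with 0.2% wetting agent. Greenhouse-grown; damage scored visually after 3 weeks versus untreated controls (0% = like control, 100% = plants dead).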

Digitaria sanguinalis [2] = assay: Pre-emergence herbicidal effect against DIGSA; details: 1280 g/ha, visual score after 3 weeks, 100% = plants have died, 0% = like control plants
In short: as §1

Echinochloa crus-galli [3] = assay: Pre-emergence herbicidal effect against ECHCG; details: 1280 g/ha, visual score after 3 weeks, 100% = plants have died, 0% = like control plants
In short: as §1

Poa annua [4] = assay: Pre-emergence herbicidal effect against POAAN; details: 1280 g/ha, visual score after 3 weeks, 100% = plants have died, 0% = like control plants
In short: as §1

Setaria viridis [5] = assay: Pre-emergence herbicidal effect against SETVI; details: 1280 g/ha, visual score after 3 weeks, 100% = plants have died, 0% = like control plants
In short: as §1

Abutylon threophrasti [6] = assay: Pre-emergence herbicidal effect against ABUTH; details: 1280 g/ha, visual score after 3 weeks, 100% = plants have died, 0% = like control plants
Excerpt: (§2) 1. Pre-emergence herbicidal effect and crop plant compatibility Seeds of monocotyledonous and dicotyledonous weed plants and crop plants are laid out in sandy loam soil in wood-fibre pots and covered with soil. The compounds of the invention, formulated in the form of wettable powders (WP) or as emulsion concentrates (EC), are then applied to the surface of the covering soil as aqueous suspension or emulsion at a water application rate equating to 600 to 800 L/ha with addition of 0.2% wetting agent. After the treatment, the pots are placed in a greenhouse and kept under good growth conditions for the trial plants. The damage to the test plants is scored visually after a test period of 3 weeks by comparison with untreated controls (herbicidal activity in percent (%): 100% activity=the plants have died, 0% activity=like control plants). [table]

Bassia scoparia [7] = assay: Pre-emergence herbicidal effect against KCHSC; details: 1280 g/ha, visual score after 3 weeks, 100% = plants have died, 0% = like control plants
Excerpt: as §2

[8] = test system: Tripleurospermum inodorum; assay: Pre-emergence herbicidal effect against MATIN; details: 1280 g/ha, visual score after 3 weeks, 100% = plants have died, 0% = like control plants
In short: as §1

Stellaria media [9] = assay: Pre-emergence herbicidal effect against STEME; details: 1280 g/ha, visual score after 3 weeks, 100% = plants have died, 0% = like control plants
In short: as §1

Veronica persica [10] = assay: Pre-emergence herbicidal effect against VERPE; details: 1280 g/ha, visual score after 3 weeks, 100% = plants have died, 0% = like control plants
In short: as §1

Alopecurus myosuroides [11] = assay: Post-emergence herbicidal effect against ALOMY; details: 1280 g/ha, visual score after about 3 weeks, 100% = plants have died, 0% = like control plants
In short: (§3)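 Greenhouse-grown weeds in sandy loam, treated at one-leaf stage 2–3 weeks after sowing; compounds as WP or EC sprayed on foliage as aqueous suspension/emulsion at 600–800 l/ha water with 0.2% wetting agent. Visual rating after about 3 weeks versus untreated controls, 0% (like control) to 100% (plants dead).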

Digitaria sanguinalis [12] = assay: Post-emergence herbicidal effect against DIGSA; details: 1280 g/ha, visual score after about 3 weeks, 100% = plants have died, 0% = like control plants
In short: as §3

Poa annua [13] = assay: Post-emergence herbicidal effect against POAAN; details: 1280 g/ha, visual assessment about 3 weeks after treatment, 100% = plants have died, 0% = like control plants
In short: as §3

Setaria viridis [14] = assay: Post-emergence herbicidal effect against SETVI; details: 1280 g/ha, visual assessment about 3 weeks after treatment, 100% = plants have died, 0% = like control plants
In short: as §3

Abutylon threophrasti [15] = assay: Post-emergence herbicidal effect against ABUTH; details: 1280 g/ha, visual assessment about 3 weeks after treatment, 100% = plants have died, 0% = like control plants
In short: as §3

Bassia scoparia [16] = assay: Post-emergence herbicidal effect against KCHSC; details: 1280 g/ha, visual assessment about 3 weeks after treatment, 100% = plants have died, 0% = like control plants
In short: as §3

[17] = test system: Tripleurospermum inodorum; assay: Post-emergence herbicidal effect against MATIN; details: 1280 g/ha, visual assessment about 3 weeks after treatment, 100% = plants have died, 0% = like control plants
In short: as §3

Stellaria media [18] = assay: Post-emergence herbicidal effect against STEME; details: 1280 g/ha, visual assessment about 3 weeks after treatment, 100% = plants have died, 0% = like control plants
In short: as §3

Veronica persica [19] = assay: Post-emergence herbicidal effect against VERPE; details: 1280 g/ha, visual assessment about 3 weeks after treatment, 100% = plants have died, 0% = like control plants
In short: as §3

Lolium rigidum = assay: Pre-emergence herbicidal effect against LOLRI; details: 1280 g/ha, visual score after 3 weeks, 100% = plants have died, 0% = like control plants
In short: as §1

Echinochloa crus-galli [20] = assay: Post-emergence herbicidal effect against ECHCG; details: 1280 g/ha, visual score after about 3 weeks, 100% = plants have died, 0% = like control plants
In short: as §3

Amaranthus retroflexus [21] = assay: Pre-emergence herbicidal effect against AMARE; details: 1280 g/ha, visual score after 3 weeks, 100% = plants have died, 0% = like control plants
Excerpt: as §2

Amaranthus retroflexus [22] = assay: Post-emergence herbicidal effect against AMARE; details: 1280 g/ha, visual assessment about 3 weeks after treatment, 100% = plants have died, 0% = like control plants
Description: [table] 2. Post-emergence herbicidal effect and crop plant compatibility Seeds of monocotyledonous and dicotyledonous weed and crop plants are laid out in sandy loam soil in wood-fibre pots, covered with soil and cultivated in a greenhouse under good growth conditions. 2 to 3 weeks after sowing, the test plants are treated at the one-leaf stage. The compounds of the invention, formulated in the form of wettable powders (WP) or as emulsion concentrates (EC), are then sprayed onto the green parts of the plants as aqueous suspension or emulsion at a water application rate equating to 600 to 800 l/ha with addition of 0.2% wetting agent. After the test plants have been left to stand in the greenhouse under optimal growth conditions for about 3 weeks, the action of the preparations is assessed visually in comparison to untreated controls (herbicidal action in percent (%): 100% activity=the plants have died, 0% activity=like control plants).

Row | SMILES | Pre-emergence action against ALOMY (Alopecurus myosuroides [1]) | Pre-emergence action against DIGSA (Digitaria sanguinalis [2]) | Pre-emergence action against ECHCG (Echinochloa crus-galli [3]) | Pre-emergence action against POAAN (Poa annua [4]) | Pre-emergence action against SETVI (Setaria viridis [5]) | Pre-emergence action against KCHSC (Bassia scoparia [7]) | Pre-emergence action against MATIN [8] | Pre-emergence action against STEME (Stellaria media [9]) | Pre-emergence action against VERPE (Veronica persica [10]) | Post-emergence action against ALOMY (Alopecurus myosuroides [11]) | Post-emergence action against DIGSA (Digitaria sanguinalis [12]) | Post-emergence action against POAAN (Poa annua [13]) | Post-emergence action against SETVI (Setaria viridis [14]) | Post-emergence action against ABUTH (Abutylon threophrasti [15]) | Post-emergence action against KCHSC (Bassia scoparia [16]) | Post-emergence action against MATIN [17] | Post-emergence action against STEME (Stellaria media [18]) | Post-emergence action against VERPE (Veronica persica [19]) | Pre-emergence action against LOLRI (Lolium rigidum) | Post-emergence action against ECHCG (Echinochloa crus-galli [20]) | other results
1 | CCOC(=O)CSc1nn(-c2ccc(F)cc2)c(-c2ccc(F)cc2)c1Br [Example I-019] | 90% | 100% | 100% | 100% | 100% | 100% | 100% | 90% | 100% | 100% | 100% | 100% | 90% | 100% | 100% | 100% | 90% | 100% | – | – | Pre-emergence action against ABUTH (Abutylon threophrasti [6]): 90%
2 | CCOC(=O)CSc1nn(-c2ccc(F)cc2F)c(-c2ccc(F)cc2)c1Br [Example I-016] | 90% | 100% | 100% | 100% | 100% | 100% | 100% | 100% | 100% | 100% | 90% | 90% | – | – | 90% | 90% | 90% | 90% | 90% | 90% | –
3 | COC(=O)CNC(=O)CSc1nn(-c2ccccc2F)c(-c2cncc(F)c2)c1Br [VII-009] | 90% | – | 90% | 100% | 100% | – | 100% | 100% | 100% | 90% | – | 100% | 90% | 90% | 90% | 90% | 100% | 90% | 100% | 90% | Pre-emergence action against ABUTH (Abutylon threophrasti [6]): 90%
4 | CCOC(=O)C[S+]([O-])c1nn(-c2ccccc2F)c(-c2cncc(Cl)c2)c1Br (stereo not drawn) [II-013] | 100% | 100% | 100% | 100% | 100% | 90% | 100% | 100% | 100% | – | – | 100% | 90% | 100% | 90% | 100% | 100% | 100% | 100% | 100% | Pre-emergence action against ABUTH (Abutylon threophrasti [6]): 90%; Pre-emergence action against AMARE (Amaranthus retroflexus [21]): 100%; Post-emergence action against AMARE (Amaranthus retroflexus [22]): 90%
5 | COC(=O)CN(C)C(=O)CSc1nn(-c2ccccc2F)c(-c2ccc(F)c(F)c2)c1Cl [VII-002] | – | – | 100% | – | 100% | 90% | – | 100% | 90% | – | – | 100% | 90% | – | – | 90% | 90% | 90% | – | – | –
6 | CCOC(=O)CSc1nn(-c2ccccc2F)c(-c2ccc(F)c(F)c2)c1Cl [Example I-001] | 100% | 100% | – | 100% | 100% | – | 90% | 100% | 100% | 100% | 100% | 100% | 90% | 90% | 90% | 100% | 100% | 100% | 100% | 100% | Pre-emergence action against AMARE (Amaranthus retroflexus [21]): 100%; Post-emergence action against AMARE (Amaranthus retroflexus [22]): 90%
7 | COC(=O)CNC(=O)CSc1nn(-c2ccccc2F)c(-c2cccnc2)c1Br [VII-007] | 90% | – | 100% | 100% | 100% | 90% | 90% | 90% | 90% | 90% | – | 90% | 90% | 90% | 90% | 90% | 90% | 90% | – | 90% | –
8 | CCOC(=O)CSc1nn(-c2cc(F)ccc2F)c(-c2ccc(F)c(F)c2)c1Br [Example I-013] | 100% | 100% | 100% | 100% | 100% | 90% | 100% | 100% | 100% | 100% | 100% | 100% | – | 90% | 90% | 100% | 100% | 100% | 100% | – | Pre-emergence action against AMARE (Amaranthus retroflexus [21]): 100%; Post-emergence action against AMARE (Amaranthus retroflexus [22]): 100%
9 | CCOC(=O)C(C)Sc1nn(-c2ccccc2F)c(-c2ccc(F)c(F)c2)c1Br (stereo not drawn) [Example I-015] | 100% | 100% | 100% | 100% | 100% | 100% | 100% | 100% | 100% | 100% | – | 100% | – | 90% | 90% | – | – | 100% | 100% | 100% | –
